The values that follow come from article PMC8401465, “In Vitro Testing of Alternative Synthetic and Natural Antiparasitic Compounds against the Monogenean Sparicotyle chrysophrii” (Pathogens, 2021).

“Also recorded” adds a separate entry of the source. Where two headings read alike, the source gives them in different places.

For one data set, the system named is Vibrio anguillarum. The data set is described as follows: Bactericidal activity (MTT), Vibrio anguillarum. It counts as cell-based. Conditions: for inhibition at 0.1 µM / inhibition at 1 µM / inhibition at 10 µM: Vibrio anguillarum, read-out: Bactericidal activity (%); for antibacterial activity against V. anguillarum: among the natural compounds. As to the method:
(§1) Two bacterial fish pathogens, Vibrio harveyi and V. anguillarum were used to test the bactericidal activity of the target compounds, being previously isolated and identified as described in [65]. Lab strains were maintained at −20 °C in Tryptone Soy Broth (TSB, Difco Laboratories, Inc., Detroit, MI, USA) supplemented with 1% (w/v) NaCl (TSB1) and 50% (v/v) glycerol. […] Bacteria in TSB medium were then cultured at the same temperature with continuous shaking (100 rpm) for 24 h. Exponentially grown bacteria were resuspended in sterile PBS and adjusted to the concentration of 10^8 colony forming units (cfu)/mL. Each target compound (20 μL; concentrations 0.1, 1, and 10 µM) was added (in triplicates) to the wells of a flat-bottom 96-well plate, except for the positive control that consisted of 0.5% DMSO in PBS. Aliquots of 20 μL of the previously cultured bacteria were added, and the plate was incubated for 5 h at 25 °C. […] The plate was then centrifuged (4500 rpm, 10 min) and the precipitate dissolved in 200 μL of DMSO. The solution (100 μL) from each well was transferred to another flat-bottom 96-well plate. The absorbance of the dissolved formazan was measured at 570 nm. Bactericidal activity was expressed as percentage of nonviable bacteria, calculated as the difference between absorbance of surviving bacteria compared to the absorbance of bacteria in positive controls (100%).

Data set [1] has as its system Sparicotyle chrysophrii adults. The data set can be described thus: microbe, parasite or virus in culture. As to conditions: Sparicotyle chrysophryii. How it is done: Firstly, the adult monogeneans were exposed to a range of four concentrations of tested compounds encompassing the full dose–response range; each compound stock at 10 mM was serially diluted 10 (1 mM), 10^2 (0.1 mM), 10^3 (0.01 mM), and 10^4 (1 µM) times. […] Ten monogeneans per well (in triplicate) were added to 2 mL sterile seawater (SW) in 6-well plates, checked at the stereomicroscope for visible signs of mechanical damage, and exposed to selected concentrations in the dark at room temperature (Table 1). The number of live/dead parasites was recorded under the stereomicroscope at 1, 4, 12, and 24 h post-exposure. S. chrysophrii was considered to be alive if it performed any type of movement autonomously or 5 s after gentle probing with a dissection needle. Negative controls comprised the seawater with up to 0.5% of DMSO in total volume, the latter used as a solvent for each compound.

Another data set relates to SAF-1 cells. The data set can be described thus: Viability of SAF-1 cell line (MTT assay). The class given is cell-based, Sparus aurata. As to conditions: for viability of SAF-1 cells compared to control: 0.1–10 µM, 24, 48, 72 h. How it is done:
Sparus aurata fibroblast cell line SAF-1 (ECACC n°00122301) was cultured in 25 cm^2 plastic flasks (Nunc, Darmstadt, Germany) in L-15 Leibowitz medium (Sigma, Haverhill, UK) supplemented with 10% fetal bovine serum (FBS), 2 mmol/L L-glutamine, 100 iu/mL penicillin, and […] streptomycin (all reagents from Sigma-Aldrich, Saint Louis, MO, USA).
Cells were grown at 25 °C under an 85% humidity atmosphere. Cells at 80% of confluence were detached with trypsin solution (0.25% of trypsin in PBS, pH 7.2–7.4) and pelleted by centrifugation (1000 rpm, 10 min, 25 °C). The cell suspension in complete medium was dispensed in a 96-multiwell plate at a density of 8000 cells/well and incubated for 24 h before the exposure to the compounds.
Cytotoxicity assay was performed in six replicates. Stock solutions were prepared by dissolving the compounds in dimethyl sulfoxide (DMSO), and then diluting in complete medium (final concentration of DMSO 0.1%) to obtain concentration of 0.1, 1, and 10 µM of target compounds.
Cells were then incubated for 24, 48, and 72 h in three different plates at 25 °C. Control samples received the same volume of culture medium and DMSO 0.1%, although this concentration of solvent is considered non-toxic.
The toxicity of the compounds was determined using the (3-(4,5-dimethylthiazol-2-yl)-2,5-diphenyltetrazolium bromide (MTT, Sigma-Aldrich) assay, according to [62], as reported in [61]. The results were expressed as viability percentage in respect to the controls (untreated cells).
The MTT assay is based on the reduction in the yellow soluble tetrazolium salt (3-(4,5-dimethylthiazol-2-yl)-2,5-diphenyltetrazolium bromide) (MTT, Sigma-Aldrich, Saint Louis, Missouri, USA) into a blue, insoluble formazan produced by the mitochondrial succinate dehydrogenase. […] After 4 h of incubation, cells were washed again, and the formazan crystals solubilized with […] of DMSO. Plates were shaken (5 min, 100 rpm) in dark conditions and the optical densities (ODs) at 570 nm with background subtraction at 690 nm were determined in a microplate reader (Opsys MR™ Microplate Reader, USA). The percentage of viability was determined by formula:Viability (%) = (OD of the tested sample/OD of the control sample) × 100
For orientation: Formazan colour is commonly taken as a measure of viable cells.

A further data set concerns Vibrio harveyi. The data set is described as follows: Bactericidal activity (MTT), Vibrio harveyi. It counts as cell-based. As to conditions: for inhibition at 0.1 µM / inhibition at 1 µM / inhibition at 10 µM: Vibrio harveyi, read-out: Bactericidal activity (%). As to the method: as §1
Data set [2] deals with wild and drug-resistant Leishmania donovani amastigotes. More on the design: method as in PMID 28400285. As to conditions: cited from earlier work.
Data set [3] concerns Sparicotyle chrysophrii adults. The data set is described as follows: microbe, parasite or virus in culture. Conditions: for LC20 (95% CI), toxicity level for adult S. chrysophrii: 20% mortality; for LC20 (95% CI), toxicity level for adult S. chrysophrii / LC80 (95% CI), toxicity level for adult S. chrysophrii: 4 h post-exposure; for LC80 (95% CI), toxicity level for adult S. chrysophrii: 80% mortality; for LC50: Sparicotyle chrysophryii, 4 h, read-out: LC50 (95% CI), toxicity level for adult S. chrysophrii; for b (SE), slope of dose–response model / e (SE), midpoint of dose–response model: Weibull type 2, c = 0, d = 1, mortality at 4 h post-exposure. As to the method:
Subsequently, the monogeneans (n = 6, in triplicate) were exposed to a range of seven concentrations tailored according to each compound’s activity observed in preliminary tests. The range for each compound was scaled down to an appropriate order of magnitude so that each compound reached 100% mortality at 4 h post-exposure (Table 1).
For the dose–response curve fitting, the drc package for R (v4.0.4) was used. An appropriate nonlinear regression model was selected between log-logistic and Weibull type models, based on the Akaike information criterion (AIC) and lack-of-fit test criteria through the use of mselect function. The best scoring model was Weibull type 2 model (asymmetrical) with lower and upper limits fixed to 0 and 1, respectively, as mortality in all assays reached 100%. […] Model parameters and estimated lethal doses (20%, 50%, and 80%) were calculated with standard errors and 95% confidence intervals, based on the delta method, respectively, and adjusted for simultaneous inference through multcomp package. Dose–response curves were visualised using ggplot2 library.

The term mortality denotes the share of the test organisms that died. Turning to `CCCCCCc1ccc(O)cc1O` [4-Hexylresorcinol, reference compound], the inhibition at 0.1 µM with Vibrio anguillarum (0.1 µM, 5 h at 25 °C) is -121 ± 10.9%; in the data set on Vibrio harveyi (0.1 µM, 5 h at 25 °C), 19.6 ± 31.5%. In addition, the inhibition at 1 µM in the data set with Vibrio anguillarum (1 µM, 5 h at 25 °C) is -76.1 ± 33.9%; in the data set on Vibrio harveyi (1 µM, 5 h at 25 °C), 34.7 ± 10.1%. Moreover, the inhibition at 10 µM with Vibrio anguillarum (10 µM, 5 h at 25 °C) was -55.5 ± 31.6%; in the data set with Vibrio harveyi (10 µM, 5 h at 25 °C), 67.5 ± 14.1%. Besides, in data set [1] (1 h), the mortality at 1000 µM stood at 100%. Moreover, the “viability of SAF-1 cells compared to control” value in the data set with SAF-1 cells is on record as “did not induce a significant reduction in viability”. The “bactericidal activity against V. harveyi” value with Vibrio harveyi (synthetic compounds, at increased concentrations) is given as “significant bactericidal activity”.
For `S=C=Nc1ccc(N=C=S)cc1` [Bitoscanate, reference compound], in the data set on Vibrio anguillarum (10 µM, p < 0.05), the “antimicrobial activity against V. anguillarum” value is on record as “best antimicrobial activity”. Further, in the data set with Vibrio anguillarum (5 h), the inhibition at 0.1 µM is -10.8 ± 19.9%, the inhibition at 1 µM is 19.6 ± 3.7% and the inhibition at 10 µM is 30.5 ± 2%. This compound registered a mortality at 1000 µM in data set [1] (24 h) of 100%. The “viability of SAF-1 cells compared to control” value in the data set on SAF-1 cells is given as “did not induce a significant reduction in viability”. Besides, in the data set on Vibrio harveyi (5 h), the inhibition at 0.1 µM was -21.6 ± 6%, the inhibition at 1 µM was -0.088 ± 16.3% and the inhibition at 10 µM is 13.1 ± 5.1%.
For orientation: LC50 means the concentration that kills 50% of the test population. Regarding `C[C@@H]1CC[C@H]2C(C)(C)[C@H]3C[C@@]12CC[C@@]3(C)O` [Cedrol], the “fold increase of selectivity index (CC50/IC50)” value in data set [2] (incorporated and delivered within lipid nanocarrier, wild-type L. donovani) was 2.1. For the same compound, in data set [2] (wild and drug-resistant L. donovani amastigotes infecting humans, read-out: inhibitory concentration (IC50)), the IC50 was 1500 nM. For the same compound, in data set [3], the “LC20 (95% CI), toxicity level for adult S. chrysophrii” value was 0.09 (0.06–0.11) mM; the “LC80 (95% CI), toxicity level for adult S. chrysophrii” value is listed as 0.14 (0.12–0.16) mM; the LC50 was determined as 110 µM; the “b (SE), slope of dose–response model” value was 3.98 (0.66). Also, the “e (SE), midpoint of dose–response model” value in data set [3] was 0.12 (0.01). For the same compound, the “times the L. donovani IC50 is lower than the LC50 observed for S. chrysophrii” value in data set [3] (IC50 1.5 μM (ref 33) against own LC50) is “approximately 73”. Further, the “potency / effect against V. anguillarum as judged in the discussion” value with Vibrio anguillarum is “effective only against V. anguillarum”. The inhibition at 0.1 µM in the data set with Vibrio anguillarum (0.1 µM, 5 h at 25 °C) was -6.9 ± 3%. The inhibition at 1 µM in the data set on Vibrio anguillarum (1 µM, 5 h at 25 °C) stood at 24.1 ± 8%. Also, the inhibition at 10 µM in the data set on Vibrio anguillarum (10 µM, 5 h at 25 °C) stood at 30.8 ± 6.4%. The “antibacterial activity against V. anguillarum” value with Vibrio anguillarum (p < 0.05) was “strongest antibacterial activity”. In addition, in the data set with SAF-1 cells (10 µM, 72 h of exposure), the “reduction in sea bream fibroblasts' viability” value is reported as “highest reduction in sea bream fibroblasts’ viability; also recorded: moderately toxic to the host cell line during long-term exposure to very high concentrations”. Further, the inhibition at 0.1 µM in the data set on Vibrio harveyi (0.1 µM, 5 h at 25 °C) is -44.9 ± 7.7%. Further, the inhibition at 1 µM in the data set with Vibrio harveyi (1 µM, 5 h at 25 °C) is -23.8 ± 6.9%. Further, the inhibition at 10 µM in the data set on Vibrio harveyi (10 µM, 5 h at 25 °C) is -2.4 ± 26.9%.
As to `COc1cc(/C=C/C(=O)CC(=O)/C=C/c2ccc(O)c(OC)c2)ccc1O` [Curcumin], in data set [3], the “LC20 (95% CI), toxicity level for adult S. chrysophrii” value was 0.14 (0.06–0.23) mM; the “LC80 (95% CI), toxicity level for adult S. chrysophrii” value is listed as 0.36 (0.26–0.45) mM; the 50% lethal concentration (LC50) amounted to 240 µM; the “b (SE), slope of dose–response model” value is recorded as 2.14 (0.44). Further, the “e (SE), midpoint of dose–response model” value in data set [3] is 0.29 (0.03). The “fold less toxic for the monogenean compared to cedrol” value in data set [3] (comparison with cedrol) is on record as 2. The “potency / effect against V. anguillarum as judged in the discussion” value in the data set with Vibrio anguillarum is “potent anti-Vibrio anguillarum agent”. Besides, the inhibition at 0.1 µM with Vibrio anguillarum (0.1 µM, 5 h at 25 °C) was 9.5 ± 7.5%. The inhibition at 1 µM with Vibrio anguillarum (1 µM, 5 h at 25 °C) came to 24.5 ± 14.6%. Moreover, in the data set on Vibrio anguillarum (10 µM, 5 h at 25 °C), the inhibition at 10 µM is 34.9 ± 1.2%. In addition, in the data set with Vibrio anguillarum (p < 0.05), the “antibacterial activity against V. anguillarum” value was “strongest antibacterial activity”. Also, in the data set with SAF-1 cells (10 µM for 24 h), the “cytotoxicity in SAF-1 cells” value was “exerted significant cytotoxicity”. For the same compound, the “potency / effect against V. harveyi as judged in the discussion” value with Vibrio harveyi was “ineffective against V. harveyi”. In addition, the inhibition at 0.1 µM with Vibrio harveyi (0.1 µM, 5 h at 25 °C) worked out at 2.1 ± 15%. Moreover, in the data set on Vibrio harveyi (1 µM, 5 h at 25 °C), the inhibition at 1 µM came out at 7.6 ± 2.1%. In addition, the inhibition at 10 µM in the data set with Vibrio harveyi (10 µM, 5 h at 25 °C) worked out at 10.4 ± 4.5%.
